What was measured:
Test in all cases: radiometric filter-binding kinase assay
HIPK3 (human) = HIPK3 (human) (UniProt Q9H422)
[1] = tested on: AKT1 (human), P31749 [S473D]
PAK6 (human) = PAK6 (human) (UniProt Q9NQU5)
HIPK1 (human) = HIPK1 (human) (UniProt Q86Z02)
HIPK2 (human) = HIPK2 (human) (UniProt Q9H2X6)
MAPK14 (human) = MAPK14 (human) (UniProt Q16539)
EPHB3 (human) = EPHB3 (human) (UniProt P54753)
DYRK2 (human) = DYRK2 (human) (UniProt Q92630)
DAPK1 (human) = DAPK1 (human) (UniProt P53355)
CSNK2A1 (human) = CSNK2A1 (human) (UniProt P68400)
Chain of CSNK2A1 (human) (P68400 whole entry, looked up): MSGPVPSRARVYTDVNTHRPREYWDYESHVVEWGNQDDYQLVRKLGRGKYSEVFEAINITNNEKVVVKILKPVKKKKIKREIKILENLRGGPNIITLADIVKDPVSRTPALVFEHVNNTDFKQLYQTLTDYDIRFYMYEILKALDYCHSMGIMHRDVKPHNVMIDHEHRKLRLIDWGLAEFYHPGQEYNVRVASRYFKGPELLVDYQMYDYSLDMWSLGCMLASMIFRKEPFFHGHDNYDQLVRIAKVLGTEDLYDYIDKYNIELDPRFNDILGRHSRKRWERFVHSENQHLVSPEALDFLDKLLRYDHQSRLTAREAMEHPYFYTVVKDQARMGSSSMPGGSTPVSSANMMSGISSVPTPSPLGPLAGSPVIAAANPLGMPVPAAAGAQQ

IKBKE (human) = IKBKE (human) (UniProt Q14164)
Chain of IKBKE (human) (Q14164 whole entry, looked up): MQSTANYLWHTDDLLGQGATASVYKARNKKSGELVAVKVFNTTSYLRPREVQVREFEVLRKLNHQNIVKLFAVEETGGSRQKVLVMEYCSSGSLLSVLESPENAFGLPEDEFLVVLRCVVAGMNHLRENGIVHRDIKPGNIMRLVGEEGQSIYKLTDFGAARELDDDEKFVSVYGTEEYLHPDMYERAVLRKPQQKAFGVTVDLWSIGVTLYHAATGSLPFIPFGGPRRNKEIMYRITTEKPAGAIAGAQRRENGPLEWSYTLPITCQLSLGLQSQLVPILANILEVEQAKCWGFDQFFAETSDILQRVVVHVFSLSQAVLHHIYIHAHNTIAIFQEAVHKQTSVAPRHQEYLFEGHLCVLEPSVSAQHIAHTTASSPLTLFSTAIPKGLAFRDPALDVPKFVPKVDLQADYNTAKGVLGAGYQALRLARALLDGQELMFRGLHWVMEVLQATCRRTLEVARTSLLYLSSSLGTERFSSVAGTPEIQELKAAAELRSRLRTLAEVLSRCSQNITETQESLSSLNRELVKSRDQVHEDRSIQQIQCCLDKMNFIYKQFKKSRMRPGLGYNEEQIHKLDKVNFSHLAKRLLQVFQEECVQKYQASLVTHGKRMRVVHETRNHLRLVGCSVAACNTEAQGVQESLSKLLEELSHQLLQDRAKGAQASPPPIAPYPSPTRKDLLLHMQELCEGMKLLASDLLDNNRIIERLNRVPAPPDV

MAP3K9 (human) = MAP3K9 (human) (UniProt P80192)
MARK3 (human) = MARK3 (human) (UniProt P27448)
MST4 (human) = MST4 (human) (UniProt Q9P289)
PRKCZ (human) = PRKCZ (human) (UniProt Q05513)
Chain of PRKCZ (human) (Q05513 whole entry, looked up): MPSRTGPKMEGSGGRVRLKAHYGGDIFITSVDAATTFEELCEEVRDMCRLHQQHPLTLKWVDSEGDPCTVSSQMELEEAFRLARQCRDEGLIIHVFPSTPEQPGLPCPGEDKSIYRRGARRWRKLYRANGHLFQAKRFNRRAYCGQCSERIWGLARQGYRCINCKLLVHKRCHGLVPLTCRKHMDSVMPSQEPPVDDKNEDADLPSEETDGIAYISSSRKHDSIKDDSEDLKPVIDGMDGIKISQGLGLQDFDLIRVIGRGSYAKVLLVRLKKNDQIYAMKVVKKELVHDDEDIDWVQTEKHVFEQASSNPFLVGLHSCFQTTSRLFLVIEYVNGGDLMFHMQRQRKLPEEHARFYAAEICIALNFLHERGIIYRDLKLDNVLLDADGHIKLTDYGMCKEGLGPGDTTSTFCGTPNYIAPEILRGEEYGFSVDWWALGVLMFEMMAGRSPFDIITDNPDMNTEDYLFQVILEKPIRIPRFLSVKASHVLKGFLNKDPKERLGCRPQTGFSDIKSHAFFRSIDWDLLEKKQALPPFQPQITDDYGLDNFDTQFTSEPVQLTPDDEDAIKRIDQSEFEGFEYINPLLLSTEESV

ROCK2 (rat) = conditions: accession and sequence are those of the human protein
MAPK13 (human) = MAPK13 (human) (UniProt O15264)
PAK7 (human) = PAK7 (human) (UniProt Q9P286)
DYRK3 (human) = DYRK3 (human) (UniProt O43781)
MARK1 (human) = MARK1 (human) (UniProt Q9P0L2)
EPHA2 (human) = EPHA2 (human) (UniProt P29317)
MAP2K6 (human) = MAP2K6 (human) (UniProt P52564)
PAK4 (human) = PAK4 (human) (UniProt O96013)
TAOK1 (human) = TAOK1 (human) (UniProt Q7L7X3)
MAPKAPK5 (human) = MAPKAPK5 (human) (UniProt Q8IW41)
MAPK11 (human) = MAPK11 (human) (UniProt Q15759)
EPHB1 (human) = EPHB1 (human) (UniProt P54762)
NUAK1 (human) = NUAK1 (human) (UniProt O60285)
NEK6 (human) = NEK6 (human) (UniProt Q9HC98)
LCK (mouse) = conditions: accession and sequence are those of the human protein
ERBB4 (human) = ERBB4 (human) (UniProt Q15303)
DYRK1A (human) = DYRK1A (human) (UniProt Q13627)
BTK (human) = BTK (human) (UniProt Q06187)
CaMK1 (human) = CaMK1 (human) (UniProt Q14012)
RPS6KA5 KD1 KD2 (human) = RPS6KA5 KD1 KD2 (human) (UniProt O75582)
Chain of RPS6KA5 KD1 KD2 (human) (O75582 whole entry, looked up): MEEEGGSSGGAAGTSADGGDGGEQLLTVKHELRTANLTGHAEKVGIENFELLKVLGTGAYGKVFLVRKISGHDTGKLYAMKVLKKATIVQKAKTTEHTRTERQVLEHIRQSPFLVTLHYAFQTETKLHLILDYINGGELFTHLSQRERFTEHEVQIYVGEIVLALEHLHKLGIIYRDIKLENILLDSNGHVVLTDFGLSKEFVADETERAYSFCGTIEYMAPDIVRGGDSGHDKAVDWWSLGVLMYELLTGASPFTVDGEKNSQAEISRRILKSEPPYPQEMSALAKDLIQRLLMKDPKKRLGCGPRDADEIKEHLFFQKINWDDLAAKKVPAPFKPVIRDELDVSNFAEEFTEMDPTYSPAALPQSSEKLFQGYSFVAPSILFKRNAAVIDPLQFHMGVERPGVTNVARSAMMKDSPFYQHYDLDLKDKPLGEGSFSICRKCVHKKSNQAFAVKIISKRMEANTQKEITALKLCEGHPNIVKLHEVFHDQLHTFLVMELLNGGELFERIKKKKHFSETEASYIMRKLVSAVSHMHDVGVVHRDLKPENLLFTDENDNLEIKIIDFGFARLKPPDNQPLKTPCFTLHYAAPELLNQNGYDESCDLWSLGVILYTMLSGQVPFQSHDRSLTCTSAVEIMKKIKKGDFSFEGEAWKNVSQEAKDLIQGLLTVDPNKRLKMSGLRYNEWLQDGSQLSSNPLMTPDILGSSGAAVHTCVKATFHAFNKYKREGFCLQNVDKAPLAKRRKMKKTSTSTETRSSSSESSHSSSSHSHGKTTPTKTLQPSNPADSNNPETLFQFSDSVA

EEF2K (human) = EEF2K (human) (UniProt O00418)
Chain of EEF2K (human) (O00418 whole entry, looked up): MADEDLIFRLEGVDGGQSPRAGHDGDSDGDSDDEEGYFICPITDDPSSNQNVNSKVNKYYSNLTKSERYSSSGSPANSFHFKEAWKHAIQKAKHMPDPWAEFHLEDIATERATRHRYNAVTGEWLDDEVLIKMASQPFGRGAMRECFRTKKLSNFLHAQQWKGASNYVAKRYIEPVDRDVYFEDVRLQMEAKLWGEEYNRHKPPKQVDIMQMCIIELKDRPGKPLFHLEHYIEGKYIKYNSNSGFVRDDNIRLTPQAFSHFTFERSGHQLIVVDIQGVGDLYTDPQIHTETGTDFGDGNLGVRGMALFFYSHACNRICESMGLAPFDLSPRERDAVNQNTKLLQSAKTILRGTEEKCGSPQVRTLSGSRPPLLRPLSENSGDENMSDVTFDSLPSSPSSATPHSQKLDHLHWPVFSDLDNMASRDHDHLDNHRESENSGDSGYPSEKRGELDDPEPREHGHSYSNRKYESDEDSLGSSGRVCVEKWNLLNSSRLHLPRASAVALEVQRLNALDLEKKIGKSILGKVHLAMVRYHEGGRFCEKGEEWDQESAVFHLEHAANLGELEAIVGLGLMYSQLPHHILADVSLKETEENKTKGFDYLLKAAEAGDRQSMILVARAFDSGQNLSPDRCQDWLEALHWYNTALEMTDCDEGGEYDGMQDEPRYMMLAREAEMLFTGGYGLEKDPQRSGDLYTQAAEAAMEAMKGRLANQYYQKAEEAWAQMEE

Chain of HIPK1 (human) (Q86Z02 whole entry, looked up): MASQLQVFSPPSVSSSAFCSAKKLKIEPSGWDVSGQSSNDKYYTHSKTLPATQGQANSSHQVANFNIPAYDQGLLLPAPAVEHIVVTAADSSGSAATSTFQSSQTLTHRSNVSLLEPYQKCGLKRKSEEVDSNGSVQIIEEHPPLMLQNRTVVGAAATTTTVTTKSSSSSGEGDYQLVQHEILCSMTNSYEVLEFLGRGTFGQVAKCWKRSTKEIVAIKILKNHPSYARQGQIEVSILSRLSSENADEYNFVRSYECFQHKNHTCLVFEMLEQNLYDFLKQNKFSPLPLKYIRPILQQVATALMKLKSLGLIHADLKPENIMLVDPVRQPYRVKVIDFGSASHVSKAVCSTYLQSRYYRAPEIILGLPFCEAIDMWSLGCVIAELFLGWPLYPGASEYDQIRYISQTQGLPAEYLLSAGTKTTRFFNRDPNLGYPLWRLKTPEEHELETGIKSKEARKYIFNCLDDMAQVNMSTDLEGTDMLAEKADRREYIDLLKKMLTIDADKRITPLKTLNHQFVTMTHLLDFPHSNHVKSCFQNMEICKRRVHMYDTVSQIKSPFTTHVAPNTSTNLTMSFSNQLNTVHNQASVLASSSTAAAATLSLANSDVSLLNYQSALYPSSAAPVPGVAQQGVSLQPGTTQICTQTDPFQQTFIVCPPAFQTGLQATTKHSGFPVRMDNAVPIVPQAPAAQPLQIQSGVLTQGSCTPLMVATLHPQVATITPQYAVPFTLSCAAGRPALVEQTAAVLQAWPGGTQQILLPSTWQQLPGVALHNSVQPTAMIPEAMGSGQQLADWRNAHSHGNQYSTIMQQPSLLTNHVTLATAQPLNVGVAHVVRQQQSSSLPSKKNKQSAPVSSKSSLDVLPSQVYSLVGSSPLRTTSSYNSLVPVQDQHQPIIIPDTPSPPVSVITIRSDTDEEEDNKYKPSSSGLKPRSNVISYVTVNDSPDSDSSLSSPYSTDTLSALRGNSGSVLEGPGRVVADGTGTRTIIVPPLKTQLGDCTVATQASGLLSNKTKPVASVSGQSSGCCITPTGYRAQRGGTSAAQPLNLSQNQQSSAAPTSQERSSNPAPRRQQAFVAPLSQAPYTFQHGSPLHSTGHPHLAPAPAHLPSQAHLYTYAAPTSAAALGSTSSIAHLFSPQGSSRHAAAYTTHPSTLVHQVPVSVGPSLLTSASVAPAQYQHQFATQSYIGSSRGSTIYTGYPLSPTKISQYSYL
Chain of MAPK14 (human) (Q16539 whole entry, looked up): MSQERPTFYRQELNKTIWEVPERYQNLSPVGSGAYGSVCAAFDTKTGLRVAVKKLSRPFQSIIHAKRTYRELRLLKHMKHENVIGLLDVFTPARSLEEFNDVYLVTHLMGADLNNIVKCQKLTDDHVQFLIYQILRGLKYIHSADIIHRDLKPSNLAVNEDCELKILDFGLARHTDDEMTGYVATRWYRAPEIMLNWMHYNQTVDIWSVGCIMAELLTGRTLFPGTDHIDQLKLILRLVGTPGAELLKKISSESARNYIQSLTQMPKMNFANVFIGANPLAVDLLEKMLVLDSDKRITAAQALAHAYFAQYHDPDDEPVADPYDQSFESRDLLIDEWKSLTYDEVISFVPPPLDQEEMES

`CNc1nc(-c2ccc3c(N)n[nH]c3c2)cc(N2C[C@@H](C(=O)NC3CCCCC3)CC[C@H]2C)n1` was tested, and the residual activity (HIPK3 (human); compound 0.01 µM) was 111%, the residual activity (HIPK3 (human); compound 0.1 µM) was 105% and the residual activity (HIPK3 (human); compound 1.0 µM) was 99%. It also gave a residual activity (HIPK3 (human); compound 10.0 µM) of 103%, a residual activity ([1]; compound 1.0 µM) of 98% and a residual activity ([1]; compound 10.0 µM) of 36%. The residual activity (PAK6 (human); compound 0.01 µM) was 108%, the residual activity (PAK6 (human); compound 0.1 µM) was 120% and the residual activity (PAK6 (human); compound 1.0 µM) was 99%. For the same compound, the residual activity (PAK6 (human); compound 10.0 µM) was 96%, the residual activity (HIPK1 (human); compound 0.01 µM) was 102% and the residual activity (HIPK1 (human); compound 0.1 µM) was 105%. It also gave a residual activity (HIPK1 (human); compound 1.0 µM) of 94%, a residual activity (HIPK1 (human); compound 10.0 µM) of 112% and a residual activity (HIPK2 (human); compound 0.01 µM) of 119%. It also gave a residual activity (HIPK2 (human); compound 0.1 µM) of 124%, a residual activity (HIPK2 (human); compound 1.0 µM) of 95% and a residual activity (HIPK2 (human); compound 10.0 µM) of 113%. For the same compound, the residual activity (MAPK14 (human); compound 0.01 µM) was 105%, the residual activity (MAPK14 (human); compound 0.1 µM) was 109% and the residual activity (MAPK14 (human); compound 1.0 µM) was 100%. It also gave a residual activity (MAPK14 (human); compound 10.0 µM) of 99%, a residual activity (EPHB3 (human); compound 0.01 µM) of 106% and a residual activity (EPHB3 (human); compound 0.1 µM) of 107%. It also gave a residual activity (EPHB3 (human); compound 1.0 µM) of 120%, a residual activity (EPHB3 (human); compound 10.0 µM) of 103% and a residual activity (DYRK2 (human); compound 0.01 µM) of 100%. The residual activity (DYRK2 (human); compound 0.1 µM) was 108%, the residual activity (DYRK2 (human); compound 1.0 µM) was 97% and the residual activity (DAPK1 (human); compound 1.0 µM) was 35%. For the same compound, the residual activity (DAPK1 (human); compound 10.0 µM) was 12%, the residual activity (CSNK2A1 (human); compound 0.01 µM) was 103% and the residual activity (CSNK2A1 (human); compound 0.1 µM) was 104%. For the same compound, the residual activity (CSNK2A1 (human); compound 1.0 µM) was 91%, the residual activity (CSNK2A1 (human); compound 10.0 µM) was 111% and the residual activity (IKBKE (human); compound 0.01 µM) was 114%. For the same compound, the residual activity (IKBKE (human); compound 0.1 µM) was 97%, the residual activity (IKBKE (human); compound 1.0 µM) was 91% and the residual activity (IKBKE (human); compound 10.0 µM) was 45%. For the same compound, the residual activity (MAP3K9 (human); compound 0.01 µM) was 110%, the residual activity (MAP3K9 (human); compound 0.1 µM) was 111% and the residual activity (MAP3K9 (human); compound 1.0 µM) was 93%. It also gave a residual activity (MAP3K9 (human); compound 10.0 µM) of 78%, a residual activity (MARK3 (human); compound 0.01 µM) of 113% and a residual activity (MARK3 (human); compound 0.1 µM) of 109%. The residual activity (MARK3 (human); compound 1.0 µM) was 88%, the residual activity (MARK3 (human); compound 10.0 µM) was 87% and the residual activity (MST4 (human); compound 0.01 µM) was 112%. It also gave a residual activity (MST4 (human); compound 0.1 µM) of 108%, a residual activity (MST4 (human); compound 1.0 µM) of 102% and a residual activity (MST4 (human); compound 10.0 µM) of 102%. The residual activity (PRKCZ (human); compound 0.01 µM) was 113%, the residual activity (PRKCZ (human); compound 0.1 µM) was 105% and the residual activity (PRKCZ (human); compound 1.0 µM) was 74%. For the same compound, the residual activity (PRKCZ (human); compound 10.0 µM) was 23%, the residual activity (ROCK2 (rat); compound 0.01 µM) was 96% and the residual activity (ROCK2 (rat); compound 0.1 µM) was 92%. It also gave a residual activity (ROCK2 (rat); compound 1.0 µM) of 67%, a residual activity (ROCK2 (rat); compound 10.0 µM) of 27% and a residual activity (MAPK13 (human); compound 0.01 µM) of 106%. It also gave a residual activity (MAPK13 (human); compound 0.1 µM) of 113%, a residual activity (MAPK13 (human); compound 1.0 µM) of 93% and a residual activity (MAPK13 (human); compound 10.0 µM) of 101%. It also gave a residual activity (PAK7 (human); compound 0.01 µM) of 97%, a residual activity (PAK7 (human); compound 0.1 µM) of 101% and a residual activity (PAK7 (human); compound 1.0 µM) of 97%. For the same compound, the residual activity (PAK7 (human); compound 10.0 µM) was 99%, the residual activity (DYRK3 (human); compound 0.01 µM) was 100% and the residual activity (DYRK3 (human); compound 0.1 µM) was 103%. It also gave a residual activity (DYRK3 (human); compound 1.0 µM) of 94%, a residual activity (DYRK3 (human); compound 10.0 µM) of 88% and a residual activity (MARK1 (human); compound 1.0 µM) of 99%. It also gave a residual activity (MARK1 (human); compound 10.0 µM) of 84%, a residual activity (EPHA2 (human); compound 0.01 µM) of 110% and a residual activity (EPHA2 (human); compound 0.1 µM) of 118%. It also gave a residual activity (EPHA2 (human); compound 1.0 µM) of 100%, a residual activity (EPHA2 (human); compound 10.0 µM) of 84% and a residual activity (MAP2K6 (human); compound 1.0 µM) of 87%. For the same compound, the residual activity (MAP2K6 (human); compound 10.0 µM) was 94%, the residual activity (PAK4 (human); compound 0.01 µM) was 108% and the residual activity (PAK4 (human); compound 0.1 µM) was 117%. It also gave a residual activity (PAK4 (human); compound 1.0 µM) of 100%, a residual activity (TAOK1 (human); compound 1.0 µM) of 86% and a residual activity (TAOK1 (human); compound 10.0 µM) of 96%. For the same compound, the residual activity (MAPKAPK5 (human); compound 0.01 µM) was 81%, the residual activity (MAPKAPK5 (human); compound 0.1 µM) was 92% and the residual activity (MAPKAPK5 (human); compound 1.0 µM) was 110%. For the same compound, the residual activity (MAPKAPK5 (human); compound 10.0 µM) was 95%, the residual activity (MAPK11 (human); compound 0.01 µM) was 113% and the residual activity (MAPK11 (human); compound 0.1 µM) was 129%. The residual activity (MAPK11 (human); compound 1.0 µM) was 105%, the residual activity (MAPK11 (human); compound 10.0 µM) was 109% and the residual activity (EPHB1 (human); compound 1.0 µM) was 111%. The residual activity (EPHB1 (human); compound 10.0 µM) was 118%, the residual activity (NUAK1 (human); compound 0.01 µM) was 120% and the residual activity (NUAK1 (human); compound 0.1 µM) was 105%. For the same compound, the residual activity (NUAK1 (human); compound 1.0 µM) was 47%, the residual activity (NUAK1 (human); compound 10.0 µM) was 9% and the residual activity (NEK6 (human); compound 0.01 µM) was 98%. The residual activity (NEK6 (human); compound 0.1 µM) was 101%, the residual activity (NEK6 (human); compound 1.0 µM) was 84% and the residual activity (NEK6 (human); compound 10.0 µM) was 79%. It also gave a residual activity (LCK (mouse); compound 0.01 µM) of 112%, a residual activity (LCK (mouse); compound 0.1 µM) of 107% and a residual activity (LCK (mouse); compound 1.0 µM) of 97%. The residual activity (LCK (mouse); compound 10.0 µM) was 99%, the residual activity (ERBB4 (human); compound 0.01 µM) was 106% and the residual activity (ERBB4 (human); compound 0.1 µM) was 107%. For the same compound, the residual activity (ERBB4 (human); compound 1.0 µM) was 106%, the residual activity (ERBB4 (human); compound 10.0 µM) was 101% and the residual activity (DYRK1A (human); compound 0.01 µM) was 102%. The residual activity (DYRK1A (human); compound 0.1 µM) was 107%, the residual activity (DYRK1A (human); compound 1.0 µM) was 92% and the residual activity (DYRK1A (human); compound 10.0 µM) was 82%. It also gave a residual activity (BTK (human); compound 0.01 µM) of 126%, a residual activity (BTK (human); compound 0.1 µM) of 121% and a residual activity (BTK (human); compound 1.0 µM) of 97%. For the same compound, the residual activity (BTK (human); compound 10.0 µM) was 90%, the residual activity (CaMK1 (human); compound 0.01 µM) was 108% and the residual activity (CaMK1 (human); compound 0.1 µM) was 112%. The residual activity (CaMK1 (human); compound 1.0 µM) was 89%, the residual activity (CaMK1 (human); compound 10.0 µM) was 95% and the residual activity (RPS6KA5 KD1 KD2 (human); compound 0.01 µM) was 102%. For the same compound, the residual activity (RPS6KA5 KD1 KD2 (human); compound 0.1 µM) was 100%, the residual activity (RPS6KA5 KD1 KD2 (human); compound 1.0 µM) was 95% and the residual activity (RPS6KA5 KD1 KD2 (human); compound 10.0 µM) was 66%. It also gave a residual activity (EEF2K (human); compound 0.01 µM) of 108%, a residual activity (EEF2K (human); compound 0.1 µM) of 100% and a residual activity (EEF2K (human); compound 1.0 µM) of 105%. For the same compound, the residual activity (EEF2K (human); compound 10.0 µM) was 100%.
